These results are taken from patent US20240066057A1, “METHOD FOR TREATING PAIN USING VANADIUM COMPOUNDS” (HUNAN FANGSHENGTAI MEDICAL TECHNOLOGY CO., LTD, priority 2020, published 2024).

The subject of test [1] is Kunming mice with CFA-induced inflammation. The experiment in a line: Von Frey test (50% paw withdrawal threshold) in CFA-induced inflammatory pain mouse model. Format: in vivo. The procedure: 10 μL of complete Freund's adjuvant (CFA) was injected into the left hind foot of mice (♂ Kunming mice, 22 g to 40 g) to induce inflammation. 24 hours after the injection, a Von Frey test was performed to determine a pain threshold. That is, under the guidance of Dixon's Up-Down method, Von Frey fibers were used to induce the mechanical paw withdrawal of the mice, and data were collected and calculated to obtain their 50% paw withdrawal thresholds (paw withdrawal threshold or PWT for short, i.e. pain threshold). Mice were then divided into different groups, including a normal saline group, a positive control group, and a drug group, which were intraperitoneally injected with normal saline, an aspirin (acetylsalicylic acid, or ASA) solution and a solution of compound for testing respectively. A Von Frey test was then performed to monitor changes in pain threshold.
Mice were divided into three groups: a blank control group, an aspirin (ASA) group, and a drug group. In blank control group, the mice were given normal saline, deionized water or deionized water containing ≤5% DMSO at the same volume as that in the drug group. In ASA group, the mice were given the known analgesic drug ASA as the positive control for tested compounds. In drug group, the mice were given compounds for testing accordingly. Due attention was paid to observe whether the pain threshold rose, the period during which the rise was maintained and the magnitude of the rise, after the injection of a tested compound solution.

Test [2] has the same test system. The experiment in a line: Effective concentration and plateau experiment of vanadium compounds, tail vein injection, mouse pain model. Format: in vivo. Conditions: 6 samples.
[3] abbreviates: Example 13, intraperitoneal injection, K about 0.97 mg/kg (atomic mass of vanadium).
Where [4] appears, read: Example 14, intraperitoneal injection, L about 0.97 mg/kg (atomic mass of vanadium).
Setting [5] is: Example 6, intraperitoneal injection, D 1.9 mg/kg, S about 250 mg/kg, listed as D.
Where [6] appears, read: intraperitoneal injection, conclusions of Examples 3-9.
[7] abbreviates: intraperitoneal injection, doses as in Examples 3-9.
[8] abbreviates: intraperitoneal injection, doses as in Examples 3-9, most of the time after onset.
[9] abbreviates: intraperitoneal injection, versus aspirin control group.
Setting [10] is: Plateau experiment, dose (vanadium) A5/G3 0.25, A1/G1/H1 0.49, A4/G2/H2 0.97, H3 1.9 mg/kg, listed as G2.
[11] abbreviates: Effective concentration table, 8.2 × 10^−4 mg/kg.
[12] abbreviates: Example 5, intraperitoneal injection, C 1.9 mg/kg (atomic mass of vanadium), S about 250 mg/kg.
[13] abbreviates: Plateau experiment, dose (vanadium) A5/G3 0.25, A1/G1/H1 0.49, A4/G2/H2 0.97, H3 1.9 mg/kg, listed as A5.
Where [14] appears, read: Plateau experiment, dose (vanadium) A5/G3 0.25, A1/G1/H1 0.49, A4/G2/H2 0.97, H3 1.9 mg/kg, listed as A4.
Where [15] appears, read: Example 11 (BEOV), intraperitoneal injection, I about 0.97 mg/kg (atomic mass of vanadium).
Setting [16] is: Example 15, intraperitoneal injection, M about 0.97 mg/kg (atomic mass of vanadium).
Where [17] appears, read: Example 12, intraperitoneal injection, J about 0.97 mg/kg (atomic mass of vanadium).

In test [1] (setting [3]), “Bis(acetylacetonato)oxovanadium (IV) [Solution K]” gave a Duration above 60 min and an Onset time of 15 to 30 after injection min.

For the compound `O=C([O-])C(=O)[O-].[O]=[V+2]` [Solution L, Vanadyl oxalate], in test [1] (setting [4]), the Duration is recorded as above 60 min and the Onset time was in the range of 15 to 30 after injection min.

In test [1] (setting [5]), Sodium metavanadate [Solution D] came in with a Duration above 60 min and an Onset time of 0 to 15 after injection min. For the same compound, the Duration in test [1] (Example 6, intraperitoneal injection, D 1.9 mg/kg, S about 250 mg/kg, listed as metavanadate) is given as above 60 min. For the same compound, the Analgesic effect entry in test [1] (setting [6]) is reported as “has an analgesic effect”. Further, the “Time after injection at which the pain threshold returned to the baseline value” (from here on “Time after injection”) in test [1] (setting [7]) was around 90 min. Besides, the “Pain thresholds / analgesic intensity compared with the S (ASA, aspirin) group” value in test [1] (setting [8]) is “greater than or comparable to those of the mice, boosted by the solution S, in the S group”. For the same compound, the “Effective duration compared with aspirin (ASA)” value in test [1] (setting [9]) is “longer than that of aspirin”.

Turning to `O=S(=O)([O-])[O-].[O]=[V+2]` [Solution G2, Vanadyl sulfate], in test [2] (setting [10]), the Duration result is recorded as “no obvious difference” and the “Maximum analgesic intensity (mean)” value was around 0.49 g.

As for `O=S(=O)([O-])[O-].[O]=[V+2]` [Solution G4, Vanadyl sulfate], in test [2] (setting [11]), the Duration is listed as below 60 min and the Onset time lay within 0 to 15 min.

With “Cis-bis(maltolato)methoxyoxovanadium (V) [Solution C]”, in test [1] (setting [12]), the Duration result is reported as “about 60 min” and the Onset time was 15 to 30 after injection min. Besides, in test [1] (setting [6]), the Analgesic effect result was “has an analgesic effect”. The “Time after injection” value in test [1] (setting [7]) was determined as 90 min. For the same compound, the “Pain thresholds / analgesic intensity compared with the S (ASA, aspirin) group” value in test [1] (setting [8]) is reported as “comparable to those of the mice, boosted by the solution S, in the S group”. Moreover, the “Effective duration compared with aspirin (ASA)” value in test [1] (setting [9]) is “longer than that of aspirin”.

On to `[Na+].[Na+].[Na+].[O]=[V]([O-])([O-])[O-]` [Solution A5, Sodium orthovanadate], for which, in test [2] (setting [13]), the Duration was above 60 min and the “Maximum analgesic intensity (mean)” value is around 0.45 g.

In test [1] (mouse, in vivo), “potassium dioxo(citrato)vanadate (V) [Solution F]” returned a Duration above 60 min and an Onset time of 15 to 30 after injection min. In addition, in test [1] (mouse, in vivo, ip), the Analgesic effect result is recorded as “has an analgesic effect”; the “Effective duration compared with aspirin (ASA)” value is given as “longer than that of aspirin”; the “Pain thresholds / analgesic intensity compared with the S (ASA, aspirin) group” value is “higher than those of the mice, boosted by the solution S, in the S group”; the “Time after injection” value was above 90 min.

Consider `[Na+].[Na+].[Na+].[O]=[V]([O-])([O-])[O-]` [Solution A2, Sodium orthovanadate], for which the Onset time in test [1] (Example 4, intraperitoneal injection, A1 0.97, A2 0.19, A3 0.097 mg/kg (atomic mass of vanadium), listed as A2) was in the range of 30 to 45 after injection min.

For `[Na+].[Na+].[Na+].[O]=[V]([O-])([O-])[O-]` [Solution A4, Sodium orthovanadate], in test [2] (setting [14]), the Duration is below 60 min and the “Maximum analgesic intensity (mean)” value was around 0.30 g.

With “bis(ethylmaltolato)oxovanadium (IV) [Solution I]”, in test [1] (setting [15]), the Duration is on record as above 60 min and the Onset time was 15 to 30 after injection min.

Regarding `[Na+].[Na+].[Na+].[O]=[V]([O-])([O-])[O-]` [Solution A6, Sodium orthovanadate], in test [2] (setting [11]), the Duration is on record as below 60 min and the Onset time lay within 0 to 15 min.

Consider `[Na+].[Na+].[Na+].[O]=[V]([O-])([O-])[O-]` [Solution A3, Sodium orthovanadate], for which the Onset time in test [1] (Example 4, intraperitoneal injection, A1 0.97, A2 0.19, A3 0.097 mg/kg (atomic mass of vanadium), 0.097 mg/kg) is on record as 30 to 45 after injection min.

For `O=C(O)c1ccccn1.O=C(O)c1ccccn1.[O]=[V]` [Solution M, Bis(picolinato)oxovanadium (IV)], in test [1] (setting [16]), the Duration is above 60 min and the Onset time was in the range of 15 to 30 after injection min.

In test [1] (setting [17]), `[O]=[V-2]12([O]C3=COC(CO)=CC3=[O+]1)[O]C1=COC(CO)=CC1=[O+]2` [Solution J, bis(kojato)oxovanadium (IV)] yielded a Duration above 60 min and an Onset time of 15 to 30 after injection min.
